Laboratory results: ChEMBL document CHEMBL4602645, “Design, synthesis and evaluation of diosgenin carbamate derivatives as multitarget anti-Alzheimer's disease agents” (2020)
The source made the active and inactive calls. The calls are words filed in the database; no cut-off is given here.

What was measured:
[1] = tested on: SH-SY5Y; test: Neuroprotective activity against H2O2-induced cytotoxicity in human SH-SY5Y cells assessed as cell viability at 10 uM pretreated for 2 hrs followed by H2O2 challenge and measured after 24 hrs by MTT assay relative to control; assay type: functional; settings: for viability at 10 µM: read-out: Activity
[2] = tested on: RAW264.7; test: Antiinflammatory activity in mouse RAW264.7 cells assessed as inhibition of LPS-induced nitric oxide production at 10 uM preincubated for 2 hrs followed by LPS stimulation and measured after 24 hrs by Griess assay relative to control; assay type: functional

| SMILES | viability at 10 µM [1] | inhibition at 10 µM [2] | Activity [1] |
| --- | --- | --- | --- |
| C[C@@H]1CC[C@@]2(OC1)O[C@H]1C[C@H]3[C@@H]4CC=C5C[C@@H](OC(=O)N6CCCCC6)CC[C@]5(C)[C@H]4CC[C@]3(C)[C@H]1[C@@H]2C | 36.7% | 12% | – |
| C[C@@H]1CC[C@@]2(OC1)O[C@H]1C[C@H]3[C@@H]4CC=C5C[C@@H](OC(=O)NCc6cnccn6)CC[C@]5(C)[C@H]4CC[C@]3(C)[C@H]1[C@@H]2C | 22.3% | – | – |
| Cc1ccc(CNC(=O)O[C@H]2CC[C@@]3(C)C(=CC[C@H]4[C@@H]5C[C@@H]6O[C@]7(CC[C@@H](C)CO7)[C@@H](C)[C@@H]6[C@@]5(C)CC[C@@H]43)C2)cc1 | 26.3% | – | – |
| COc1ccccc1CNC(=O)O[C@H]1CC[C@@]2(C)C(=CC[C@H]3[C@@H]4C[C@@H]5O[C@]6(CC[C@@H](C)CO6)[C@@H](C)[C@@H]5[C@@]4(C)CC[C@@H]32)C1 | 11.3% | – | – |
| C[C@@H]1CC[C@@]2(OC1)O[C@H]1C[C@H]3[C@@H]4CC=C5C[C@@H](OC(=O)N(C)Cc6ccc(F)cc6)CC[C@]5(C)[C@H]4CC[C@]3(C)[C@H]1[C@@H]2C | 10.7% | – | – |
| COc1cc(CN2CCN(C(=O)O[C@H]3CC[C@@]4(C)C(=CC[C@H]5[C@@H]6C[C@@H]7O[C@]8(CC[C@@H](C)CO8)[C@@H](C)[C@@H]7[C@@]6(C)CC[C@@H]54)C3)CC2)ccc1O | 23.1% | – | – |
| C[C@@H]1CC[C@@]2(OC1)O[C@H]1C[C@H]3[C@@H]4CC=C5C[C@@H](OC(=O)N6CCN(C)CC6)CC[C@]5(C)[C@H]4CC[C@]3(C)[C@H]1[C@@H]2C | 3.6% | – | – |
| C[C@@H]1CC[C@@]2(OC1)O[C@H]1C[C@H]3[C@@H]4CC=C5C[C@@H](OC(=O)N6CCN(Cc7ccc(Cl)cc7)CC6)CC[C@]5(C)[C@H]4CC[C@]3(C)[C@H]1[C@@H]2C | 4.5% | – | – |
| C[C@@H]1CC[C@@]2(OC1)O[C@H]1C[C@H]3[C@@H]4CC=C5C[C@@H](OC(=O)N6CCN(Cc7ccc(F)cc7)CC6)CC[C@]5(C)[C@H]4CC[C@]3(C)[C@H]1[C@@H]2C | 5.4% | – | – |
| C[C@@H]1CC[C@@]2(OC1)O[C@H]1C[C@H]3[C@@H]4CC=C5C[C@@H](OC(=O)N(C)Cc6ccc(Cl)cc6)CC[C@]5(C)[C@H]4CC[C@]3(C)[C@H]1[C@@H]2C | 43.9% | 12.5% | – |
| C[C@@H]1CC[C@@]2(OC1)O[C@H]1C[C@H]3[C@@H]4CC=C5C[C@@H](OC(=O)N6CCCC6)CC[C@]5(C)[C@H]4CC[C@]3(C)[C@H]1[C@@H]2C | 63.2% | 16.5% | – |
| C[C@@H]1CC[C@@]2(OC1)O[C@H]1C[C@H]3[C@@H]4CC=C5C[C@@H](OC(=O)N6CCN(Cc7ccccc7)CC6)CC[C@]5(C)[C@H]4CC[C@]3(C)[C@H]1[C@@H]2C | 11.2% | – | – |
| C[C@@H]1CC[C@@]2(OC1)O[C@H]1C[C@H]3[C@@H]4CC=C5C[C@@H](OC(=O)NC6CCCCC6)CC[C@]5(C)[C@H]4CC[C@]3(C)[C@H]1[C@@H]2C | 34.4% | 11.6% | – |
| C[C@@H]1CC[C@@]2(OC1)O[C@H]1C[C@H]3[C@@H]4CC=C5C[C@@H](OC(=O)NCc6ccccc6F)CC[C@]5(C)[C@H]4CC[C@]3(C)[C@H]1[C@@H]2C | 21% | – | – |
| Cc1cccc(CNC(=O)O[C@H]2CC[C@@]3(C)C(=CC[C@H]4[C@@H]5C[C@@H]6O[C@]7(CC[C@@H](C)CO7)[C@@H](C)[C@@H]6[C@@]5(C)CC[C@@H]43)C2)c1 | 14.2% | – | – |
| C[C@@H]1CC[C@@]2(OC1)O[C@H]1C[C@H]3[C@@H]4CC=C5C[C@@H](OC(=O)NC6CCCC6)CC[C@]5(C)[C@H]4CC[C@]3(C)[C@H]1[C@@H]2C | 3.3% | – | – |
| C[C@@H]1CC[C@@]2(OC1)O[C@H]1C[C@H]3[C@@H]4CC=C5C[C@@H](OC(=O)NCc6ccc(Cl)cc6)CC[C@]5(C)[C@H]4CC[C@]3(C)[C@H]1[C@@H]2C | 56.9% | 7% | – |
| COc1cccc(CNC(=O)O[C@H]2CC[C@@]3(C)C(=CC[C@H]4[C@@H]5C[C@@H]6O[C@]7(CC[C@@H](C)CO7)[C@@H](C)[C@@H]6[C@@]5(C)CC[C@@H]43)C2)c1 | 38.8% | 9.8% | – |
| COc1ccc(CN(C)C(=O)O[C@H]2CC[C@@]3(C)C(=CC[C@H]4[C@@H]5C[C@@H]6O[C@]7(CC[C@@H](C)CO7)[C@@H](C)[C@@H]6[C@@]5(C)CC[C@@H]43)C2)cc1 | 19.4% | – | – |
| CCCCNC(=O)O[C@H]1CC[C@@]2(C)C(=CC[C@H]3[C@@H]4C[C@@H]5O[C@]6(CC[C@@H](C)CO6)[C@@H](C)[C@@H]5[C@@]4(C)CC[C@@H]32)C1 | 47.8% | 11% | – |

| SMILES | viability at 10 µM [1] | inhibition at 10 µM [2] | Activity [1] |
| --- | --- | --- | --- |
| CCNC(=O)O[C@H]1CC[C@@]2(C)C(=CC[C@H]3[C@@H]4C[C@@H]5O[C@]6(CC[C@@H](C)CO6)[C@@H](C)[C@@H]5[C@@]4(C)CC[C@@H]32)C1 | 10.9% | – | – |
| CC(C)CN(C)C(=O)O[C@H]1CC[C@@]2(C)C(=CC[C@H]3[C@@H]4C[C@@H]5O[C@]6(CC[C@@H](C)CO6)[C@@H](C)[C@@H]5[C@@]4(C)CC[C@@H]32)C1 | 17.7% | – | – |
| C[C@@H]1CC[C@@]2(OC1)O[C@H]1C[C@H]3[C@@H]4CC=C5C[C@@H](OC(=O)NCc6ccncc6)CC[C@]5(C)[C@H]4CC[C@]3(C)[C@H]1[C@@H]2C | 42.1% | 11.8% | – |
| CCN(C)C(=O)O[C@H]1CC[C@@]2(C)C(=CC[C@H]3[C@@H]4C[C@@H]5O[C@]6(CC[C@@H](C)CO6)[C@@H](C)[C@@H]5[C@@]4(C)CC[C@@H]32)C1 | 4.3% | – | – |
| COc1ccc(CNC(=O)O[C@H]2CC[C@@]3(C)C(=CC[C@H]4[C@@H]5C[C@@H]6O[C@]7(CC[C@@H](C)CO7)[C@@H](C)[C@@H]6[C@@]5(C)CC[C@@H]43)C2)cc1 | 53.5% | 18.6% | – |
| Cc1ccc(CN(C)C(=O)O[C@H]2CC[C@@]3(C)C(=CC[C@H]4[C@@H]5C[C@@H]6O[C@]7(CC[C@@H](C)CO7)[C@@H](C)[C@@H]6[C@@]5(C)CC[C@@H]43)C2)cc1 | – | – | inactive |
| C[C@@H]1CC[C@@]2(OC1)O[C@H]1C[C@H]3[C@@H]4CC=C5C[C@@H](OC(=O)NC6CC6)CC[C@]5(C)[C@H]4CC[C@]3(C)[C@H]1[C@@H]2C | – | – | inactive |
| C[C@@H]1CC[C@@]2(OC1)O[C@H]1C[C@H]3[C@@H]4CC=C5C[C@@H](OC(=O)NCc6cccc(F)c6)CC[C@]5(C)[C@H]4CC[C@]3(C)[C@H]1[C@@H]2C | 27.4% | – | – |
| C[C@@H]1CC[C@@]2(OC1)O[C@H]1C[C@H]3[C@@H]4CC=C5C[C@@H](OC(=O)NCc6ccccc6Cl)CC[C@]5(C)[C@H]4CC[C@]3(C)[C@H]1[C@@H]2C | 8.9% | – | – |
| C[C@@H]1CC[C@@]2(OC1)O[C@H]1C[C@H]3[C@@H]4CC=C5C[C@@H](OC(=O)NCc6ccc(C(F)(F)F)cc6)CC[C@]5(C)[C@H]4CC[C@]3(C)[C@H]1[C@@H]2C | – | – | inactive |
| C[C@@H]1CC[C@@]2(OC1)O[C@H]1C[C@H]3[C@@H]4CC=C5C[C@@H](OC(=O)N6CCN(Cc7ccc(O)cc7)CC6)CC[C@]5(C)[C@H]4CC[C@]3(C)[C@H]1[C@@H]2C | 9.7% | – | – |
| C[C@@H]1CC[C@@]2(OC1)O[C@H]1C[C@H]3[C@@H]4CC=C5C[C@@H](OC(=O)N(C)Cc6ccccc6)CC[C@]5(C)[C@H]4CC[C@]3(C)[C@H]1[C@@H]2C | 43.5% | 20.8% | – |
| C[C@@H]1CC[C@@]2(OC1)O[C@H]1C[C@H]3[C@@H]4CC=C5C[C@@H](OC(=O)NC(C)(C)C)CC[C@]5(C)[C@H]4CC[C@]3(C)[C@H]1[C@@H]2C | 7.7% | – | – |
| C[C@@H]1CC[C@@]2(OC1)O[C@H]1C[C@H]3[C@@H]4CC=C5C[C@@H](OC(=O)NCc6cccc(Cl)c6)CC[C@]5(C)[C@H]4CC[C@]3(C)[C@H]1[C@@H]2C | 13.7% | – | – |
| C[C@@H]1CC[C@@]2(OC1)O[C@H]1C[C@H]3[C@@H]4CC=C5C[C@@H](OC(=O)NCc6ccc(F)cc6)CC[C@]5(C)[C@H]4CC[C@]3(C)[C@H]1[C@@H]2C | 60.1% | 18.6% | – |
| C[C@@H]1CC[C@@]2(OC1)O[C@H]1C[C@H]3[C@@H]4CC=C5C[C@@H](O)CC[C@]5(C)[C@H]4CC[C@]3(C)[C@H]1[C@@H]2C [DISOGENIN] | 6.7% | – | – |
| COc1ccc(CN2CCN(C(=O)O[C@H]3CC[C@@]4(C)C(=CC[C@H]5[C@@H]6C[C@@H]7O[C@]8(CC[C@@H](C)CO8)[C@@H](C)[C@@H]7[C@@]6(C)CC[C@@H]54)C3)CC2)cc1 | – | – | inactive |
| Cc1ccccc1CNC(=O)O[C@H]1CC[C@@]2(C)C(=CC[C@H]3[C@@H]4C[C@@H]5O[C@]6(CC[C@@H](C)CO6)[C@@H](C)[C@@H]5[C@@]4(C)CC[C@@H]32)C1 | 7.9% | – | – |
| C[C@@H]1CC[C@@]2(OC1)O[C@H]1C[C@H]3[C@@H]4CC=C5C[C@@H](OC(=O)NCc6cccnc6)CC[C@]5(C)[C@H]4CC[C@]3(C)[C@H]1[C@@H]2C | 3.5% | – | – |
| CC(C)CNC(=O)O[C@H]1CC[C@@]2(C)C(=CC[C@H]3[C@@H]4C[C@@H]5O[C@]6(CC[C@@H](C)CO6)[C@@H](C)[C@@H]5[C@@]4(C)CC[C@@H]32)C1 | 25.3% | – | – |
